By IC50 is commonly meant the concentration at which inhibition is half-maximal.

Bridge positions count the residues as written; N and C are the ends. Square brackets hold non-standard residues; d marks the D form. Peptide text beside a SMILES is read from it. * marks the point of attachment. Bip = N[C@@H](Cc1ccc(-c2ccccc2)cc1)C(=O)O; Phe(3-Me) = Cc1cccc(C[C@H](N)C(=O)O)c1; Cha = N[C@@H](CC1CCCCC1)C(=O)O; Cit = NC(=O)NCCC[C@H](N)C(=O)O; Carboxymethyl = O=C(O)C*; Orn = NCCC[C@H](N)C(=O)O; Aun = NCCCCCCCCCCC(=O)O; Dab = NCC[C@H](N)C(=O)O; Dap = NC[C@H](N)C(=O)O

In this experiment the target is T1, PD-1/PD-L1 interaction (PE-labeled human PD-L1-Ig binding to Jurkat cell line over-expressing human PD-1) (Homo sapiens, UniProt Q15116).
T1 construct: expressed in transfected cells; host or cells: Jurkat
T1 sequence (Q15116 25-288): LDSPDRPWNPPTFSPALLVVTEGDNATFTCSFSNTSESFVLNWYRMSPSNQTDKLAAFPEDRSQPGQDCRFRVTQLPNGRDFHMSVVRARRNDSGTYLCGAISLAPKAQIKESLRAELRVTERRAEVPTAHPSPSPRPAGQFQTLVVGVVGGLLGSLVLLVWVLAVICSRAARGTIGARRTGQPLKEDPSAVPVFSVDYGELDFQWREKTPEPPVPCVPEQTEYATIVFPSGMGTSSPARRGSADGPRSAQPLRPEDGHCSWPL
Description: Jurkat-PD-1 Cell Binding High-Content Screening Assay (CBA). It is filed as cell-based. To be noted: Jurkat cell line over-expressing human PD-1; PE-labeled PD-L1-Ig 20 nM final; read-out: Jurkat hPD1-PDL1 IC50. Summed up:
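Binding of fluorescent PD-L1-Ig (20 nM final) to Jurkat-PD-1 cells was measured by automated imaging after 1 h, following a 2 h compound pre-treatment at 37° C.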
With `Cc1cccc(C[C@@H]2NC(=O)[C@H](CC(=O)O)NC(=O)[C@H](Cc3ccc(OCC(=O)O)cc3)NC(=O)[C@H](CN)NC(=O)CSC[C@@H](C(=O)N[C@@H](C)C(=O)N[C@@H](CN)C(=O)NCC(=O)NCCCCCCCCCCC(=O)O)NC(=O)[C@H]([C@@H](C)O)NC(=O)[C@H](C(C)C)NC(=O)[C@H](CC3CCCCC3)NC(=O)[C@H](CCN)NC(=O)[C@@H](CC(C)C)NC(=O)[C@H](CCCN)NC(=O)[C@H](CCCNC(N)=O)NC(=O)[C@H](Cc3ccc(-c4ccccc4)cc3)NC(=O)[C@H](C(C)C)NC2=O)c1` [Compound 1053] ({CH2CO}-[Dap]Y(Carboxymethyl)D[Phe(3-Me)]V[Bip][Cit][Orn][dL][Dab][Cha]VTCA[Dap]G[Aun]-OH; thioether N-14), the IC50 was determined as 8.9 nM.
The figure for `Cc1cccc(C[C@@H]2NC(=O)[C@H](CC(=O)O)NC(=O)[C@H](Cc3ccc(OCC(=O)O)cc3)NC(=O)[C@H](Cc3ccc(OCC(=O)O)cc3)NC(=O)CSC[C@@H](C(=O)NCC(=O)N[C@@H](CCN)C(=O)NCCCCCCCCCCC(=O)O)NC(=O)[C@H](CO)NC(=O)[C@H](C(C)C)NC(=O)[C@H](CC3CCCCC3)NC(=O)[C@H](CCN)NC(=O)[C@@H](CC(C)C)NC(=O)[C@H](CCCN)NC(=O)[C@H](C(C)C)NC(=O)[C@H](Cc3ccc(-c4ccccc4)cc3)NC(=O)[C@H](CC(C)C)NC2=O)c1` [Compound 1054] ({CH2CO}-Y(Carboxymethyl)Y(Carboxymethyl)D[Phe(3-Me)]L[Bip]V[Orn][dL][Dab][Cha]VSCG[Dab][Aun]-OH; thioether N-14) is 31.3 nM; for `Cc1cccc(C[C@@H]2NC(=O)[C@H](CC(=O)O)NC(=O)[C@H](Cc3ccc(OCC(=O)O)cc3)NC(=O)[C@H](CN)NC(=O)CSC[C@@H](C(=O)N[C@@H](C)C(=O)N[C@@H](CN)C(=O)NCCCCCCCCCCC(=O)O)NC(=O)[C@H]([C@@H](C)O)NC(=O)[C@H](C(C)C)NC(=O)[C@H](CC3CCCCC3)NC(=O)[C@H](CCN)NC(=O)[C@@H](CC(C)C)NC(=O)[C@H](CCCN)NC(=O)[C@H](CCCNC(N)=O)NC(=O)[C@H](Cc3ccc(-c4ccccc4)cc3)NC(=O)[C@H](C(C)C)NC2=O)c1` [Compound 1057] ({CH2CO}-[Dap]Y(Carboxymethyl)D[Phe(3-Me)]V[Bip][Cit][Orn][dL][Dab][Cha]VTCA[Dap][Aun]-OH; thioether N-14) it is 15.9 nM; for `Cc1cccc(C[C@@H]2NC(=O)[C@H](CC(=O)O)NC(=O)[C@H](Cc3ccc(OCC(=O)O)cc3)NC(=O)[C@H](Cc3ccc(OCC(=O)O)cc3)NC(=O)CSC[C@@H](C(=O)N[C@@H](CCCCN)C(=O)NCCCCCCCCCCC(=O)O)NC(=O)[C@H](CO)NC(=O)[C@H](C(C)C)NC(=O)[C@H](CC3CCCCC3)NC(=O)[C@H](CCN)NC(=O)[C@@H](CC(C)C)NC(=O)[C@H](CCCN)NC(=O)[C@H](C(C)C)NC(=O)[C@H](Cc3ccc(-c4ccccc4)cc3)NC(=O)[C@H](CC(C)C)NC2=O)c1` [Compound 1058] ({CH2CO}-Y(Carboxymethyl)Y(Carboxymethyl)D[Phe(3-Me)]L[Bip]V[Orn][dL][Dab][Cha]VSCK[Aun]-OH; thioether N-14) it is 57.2 nM.
The figure for `Cc1cccc(C[C@@H]2NC(=O)[C@H](CC(=O)O)NC(=O)[C@H](Cc3ccc(OCC(=O)O)cc3)NC(=O)[C@H](Cc3ccc(OCC(=O)O)cc3)NC(=O)CSC[C@@H](C(=O)N[C@@H](CCCN)C(=O)NCCCCCCCCCCC(=O)O)NC(=O)[C@H](CO)NC(=O)[C@H](C(C)C)NC(=O)[C@H](CC3CCCCC3)NC(=O)[C@H](CCN)NC(=O)[C@@H](CC(C)C)NC(=O)[C@H](CCCN)NC(=O)[C@H](C(C)C)NC(=O)[C@H](Cc3ccc(-c4ccccc4)cc3)NC(=O)[C@H](CC(C)C)NC2=O)c1` [Compound 1059] ({CH2CO}-Y(Carboxymethyl)Y(Carboxymethyl)D[Phe(3-Me)]L[Bip]V[Orn][dL][Dab][Cha]VSC[Orn][Aun]-OH; thioether N-14) is 48.6 nM; for `Cc1cccc(C[C@@H]2NC(=O)[C@H](CC(=O)O)NC(=O)[C@H](Cc3ccc(OCC(=O)O)cc3)NC(=O)[C@H](Cc3ccc(OCC(=O)O)cc3)NC(=O)CSC[C@@H](C(=O)N[C@@H](CCN)C(=O)NCCCCCCCCCCC(=O)O)NC(=O)[C@H](CO)NC(=O)[C@H](C(C)C)NC(=O)[C@H](CC3CCCCC3)NC(=O)[C@H](CCN)NC(=O)[C@@H](CC(C)C)NC(=O)[C@H](CCCN)NC(=O)[C@H](C(C)C)NC(=O)[C@H](Cc3ccc(-c4ccccc4)cc3)NC(=O)[C@H](CC(C)C)NC2=O)c1` [Compound 1060] ({CH2CO}-Y(Carboxymethyl)Y(Carboxymethyl)D[Phe(3-Me)]L[Bip]V[Orn][dL][Dab][Cha]VSC[Dab][Aun]-OH; thioether N-14) it is 89.8 nM.
Regarding `Cc1cccc(C[C@@H]2NC(=O)[C@H](CC(=O)O)NC(=O)[C@H](Cc3ccc(OCC(=O)O)cc3)NC(=O)[C@H](Cc3ccc(OCC(=O)O)cc3)NC(=O)CSC[C@@H](C(=O)N[C@@H](CN)C(=O)NCCCCCCCCCCC(=O)O)NC(=O)[C@H](CO)NC(=O)[C@H](C(C)C)NC(=O)[C@H](CC3CCCCC3)NC(=O)[C@H](CCN)NC(=O)[C@@H](CC(C)C)NC(=O)[C@H](CCCN)NC(=O)[C@H](C(C)C)NC(=O)[C@H](Cc3ccc(-c4ccccc4)cc3)NC(=O)[C@H](CC(C)C)NC2=O)c1` [Compound 1061] ({CH2CO}-Y(Carboxymethyl)Y(Carboxymethyl)D[Phe(3-Me)]L[Bip]V[Orn][dL][Dab][Cha]VSC[Dap][Aun]-OH; thioether N-14), the IC50 was determined as 56.2 nM.
Turning to `Cc1cccc(C[C@@H]2NC(=O)[C@H](CC(=O)O)NC(=O)[C@H](Cc3ccc(OCC(=O)O)cc3)NC(=O)[C@H](CN)NC(=O)CSC[C@@H](C(=O)N[C@@H](CCN)C(=O)NCCCCCCCCCCC(=O)O)NC(=O)[C@H]([C@@H](C)O)NC(=O)[C@H](C(C)C)NC(=O)[C@H](CC3CCCCC3)NC(=O)[C@H](CCN)NC(=O)[C@@H](CC(C)C)NC(=O)[C@H](CCCN)NC(=O)[C@H](CCCNC(N)=O)NC(=O)[C@H](Cc3ccc(-c4ccccc4)cc3)NC(=O)[C@H](C(C)C)NC2=O)c1` [Compound 1064] ({CH2CO}-[Dap]Y(Carboxymethyl)D[Phe(3-Me)]V[Bip][Cit][Orn][dL][Dab][Cha]VTC[Dab][Aun]-OH; thioether N-14), the IC50 was determined as 16.3 nM.
The figure for `Cc1cccc(C[C@@H]2NC(=O)[C@H](CC(=O)O)NC(=O)[C@H](Cc3ccc(OCC(=O)O)cc3)NC(=O)[C@H](CN)NC(=O)CSC[C@@H](C(=O)N[C@@H](CN)C(=O)NCCCCCCCCCCC(=O)O)NC(=O)[C@H]([C@@H](C)O)NC(=O)[C@H](C(C)C)NC(=O)[C@H](CC3CCCCC3)NC(=O)[C@H](CCN)NC(=O)[C@@H](CC(C)C)NC(=O)[C@H](CCCN)NC(=O)[C@H](CCCNC(N)=O)NC(=O)[C@H](Cc3ccc(-c4ccccc4)cc3)NC(=O)[C@H](C(C)C)NC2=O)c1` [Compound 1065] ({CH2CO}-[Dap]Y(Carboxymethyl)D[Phe(3-Me)]V[Bip][Cit][Orn][dL][Dab][Cha]VTC[Dap][Aun]-OH; thioether N-14) is 13.5 nM.

These data come from US20260022142A1, “MACROCYCLIC IMMUNOMODULATORS” (Bristol-Myers Squibb Company, priority 2022, published 2026).
